Converted amounts (≈) assume the structure as drawn.

Data on four molecules can be found in ChEMBL document CHEMBL4665917, “Optimization of Versatile Oxindoles as Selective PI3Kδ Inhibitors” (ACS Med Chem Lett, 2020).

The first data set is described as follows: Half life in Wistar-Han rat at 0.5 mg/kg, iv or 1 mg/kg, po. The class given is ADME, organism-based. Conditions: in vivo.
`CCn1c(-c2cnc(C)nc2)nc2c(-c3ccc4c(c3)[C@@]3(CCCN3C(=O)C3CC3)C(=O)N4)ncnc21` showed a half-life of 0.5 h.
For `CCn1c(-c2cnc(C)nc2)nc2c(-c3ccc4c(c3)[C@@]3(CCCN3C(=O)C3CC3)C(=O)N4C)ncnc21`, the half-life was 1.1 h.
`CCn1c(-c2cnc(C)nc2)nc2c(-c3ccc4c(c3)[C@](C)(NC3CCC3)C(=O)N4)ncnc21` showed a half-life of 0.6 h.
Consider `CCn1c(-c2cnc(C)nc2)nc2c(-c3cnc4c(c3)[C@](C)(N3CC(C)(OC)C3)C(=O)N4)ncnc21`, for which the half-life is 2.8 h. This half-life is about 4.7-fold higher than that of the molecule before.

Another data set is described as follows: Half life in Beagle dog at 0.5 mg/kg, iv or 1 mg/kg, po. It is filed as ADME, organism-based, Canis lupus familiaris. As to conditions: in vivo.
The molecule `CCn1c(-c2cnc(C)nc2)nc2c(-c3ccc4c(c3)[C@@]3(CCCN3C(=O)C3CC3)C(=O)N4)ncnc21` showed a half-life of 0.5 h.
`CCn1c(-c2cnc(C)nc2)nc2c(-c3ccc4c(c3)[C@@]3(CCCN3C(=O)C3CC3)C(=O)N4C)ncnc21` had a half-life of 3 h.
For `CCn1c(-c2cnc(C)nc2)nc2c(-c3cnc4c(c3)[C@](C)(N3CC(C)(OC)C3)C(=O)N4)ncnc21`, the half-life is 2 h.

The next data set in a line: Apparent permeability in pig LLC-PK1 cells. It is filed as ADME, cell-based, Sus scrofa.
Settings: not given
For the molecule `CCn1c(-c2cnc(C)nc2)nc2c(-c3ccc4c(c3)[C@@]3(CCCN3C(=O)C3CC3)C(=O)N4)ncnc21`, the Papp came out at 10 ×10⁻⁶ cm/s.
Turning to `CCn1c(-c2cnc(C)nc2)nc2c(-c3ccc4c(c3)[C@@]3(CCCN3C(=O)C3CC3)C(=O)N4C)ncnc21`, the Papp came to 32 ×10⁻⁶ cm/s.
`CCn1c(-c2cnc(C)nc2)nc2c(-c3ccc4c(c3)[C@](C)(NC3CCC3)C(=O)N4)ncnc21`: the Papp amounted to 30 ×10⁻⁶ cm/s.
`CCn1c(-c2cnc(C)nc2)nc2c(-c3cnc4c(c3)[C@](C)(N3CC(C)(OC)C3)C(=O)N4)ncnc21`: the Papp was 24 ×10⁻⁶ cm/s.

A short description of another data set: Solubility of the compound at pH 7. The class given is physicochemical. Conditions: buffer.
Take `CCn1c(-c2cnc(C)nc2)nc2c(-c3ccc4c(c3)[C@@]3(CCCN3C(=O)C3CC3)C(=O)N4)ncnc21`: the solubility came out at 34 µM (≈ 16.8 µg/mL).
The same measure, in the same setting: the figure for `CCn1c(-c2cnc(C)nc2)nc2c(-c3ccc4c(c3)[C@@]3(CCCN3C(=O)C3CC3)C(=O)N4C)ncnc21` is 130 µM (≈ 66.1 µg/mL).
On the same count and under the same terms, the figure for `CCn1c(-c2cnc(C)nc2)nc2c(-c3ccc4c(c3)[C@](C)(NC3CCC3)C(=O)N4)ncnc21` is 130 µM (≈ 59.1 µg/mL); for `CCn1c(-c2cnc(C)nc2)nc2c(-c3cnc4c(c3)[C@](C)(N3CC(C)(OC)C3)C(=O)N4)ncnc21` it is 160 µM (≈ 77.7 µg/mL).

A short description of another data set: Clearance in Wistar-Han rat at 0.5 mg/kg, iv or 1 mg/kg, po. The class given is ADME, organism-based. Conditions: in vivo.
With `CCn1c(-c2cnc(C)nc2)nc2c(-c3ccc4c(c3)[C@](C)(NC3CCC3)C(=O)N4)ncnc21`, the clearance was determined as 66 mL/min/kg.
The molecule `CCn1c(-c2cnc(C)nc2)nc2c(-c3cnc4c(c3)[C@](C)(N3CC(C)(OC)C3)C(=O)N4)ncnc21` returned a clearance of 8.1 mL/min/kg.

A further data set can be described thus: Intrinsic clearance in Wistar-Han rat at 0.5 mg/kg, iv or 1 mg/kg, po. It is filed as ADME, organism-based. As to conditions: in vivo.
Molecule `CCn1c(-c2cnc(C)nc2)nc2c(-c3ccc4c(c3)[C@](C)(NC3CCC3)C(=O)N4)ncnc21` gave a CL of 930 mL/min/kg.
The same measure, in the same setting: the figure for `CCn1c(-c2cnc(C)nc2)nc2c(-c3cnc4c(c3)[C@](C)(N3CC(C)(OC)C3)C(=O)N4)ncnc21` is 18 mL/min/kg.

A short description of another data set: Volume of distribution in Wistar-Han rat at 0.5 mg/kg, iv or 1 mg/kg, po. Conditions: in vivo. It is filed as ADME, organism-based.
The molecule `CCn1c(-c2cnc(C)nc2)nc2c(-c3ccc4c(c3)[C@@]3(CCCN3C(=O)C3CC3)C(=O)N4)ncnc21` yielded a Vd of 1.9 L/kg.
In turn, `CCn1c(-c2cnc(C)nc2)nc2c(-c3ccc4c(c3)[C@@]3(CCCN3C(=O)C3CC3)C(=O)N4C)ncnc21` registered a Vd of 0.7 L/kg.
In turn, `CCn1c(-c2cnc(C)nc2)nc2c(-c3ccc4c(c3)[C@](C)(NC3CCC3)C(=O)N4)ncnc21` came in with a Vd of 2.4 L/kg.
For the molecule `CCn1c(-c2cnc(C)nc2)nc2c(-c3cnc4c(c3)[C@](C)(N3CC(C)(OC)C3)C(=O)N4)ncnc21`, the Vd is 1.7 L/kg.

Another data set is described as follows: Unbound volume of distribution in Wistar-Han rat at 0.5 mg/kg, iv or 1 mg/kg, po. It is filed as ADME, organism-based. Conditions: in vivo.
Take `CCn1c(-c2cnc(C)nc2)nc2c(-c3ccc4c(c3)[C@@]3(CCCN3C(=O)C3CC3)C(=O)N4)ncnc21`: the Vdu worked out at 5.5 L/kg.
Consider `CCn1c(-c2cnc(C)nc2)nc2c(-c3ccc4c(c3)[C@@]3(CCCN3C(=O)C3CC3)C(=O)N4C)ncnc21`, for which the Vdu is 3.8 L/kg.
`CCn1c(-c2cnc(C)nc2)nc2c(-c3ccc4c(c3)[C@](C)(NC3CCC3)C(=O)N4)ncnc21` returned a Vdu of 7.3 L/kg.
`CCn1c(-c2cnc(C)nc2)nc2c(-c3cnc4c(c3)[C@](C)(N3CC(C)(OC)C3)C(=O)N4)ncnc21` displayed a Vdu of 3.3 L/kg.

A further data set can be described thus: Oral bioavailability in Wistar-Han rat at 1 mg/kg. It is filed as ADME, organism-based. As to conditions: in vivo.
Turning to `CCn1c(-c2cnc(C)nc2)nc2c(-c3ccc4c(c3)[C@@]3(CCCN3C(=O)C3CC3)C(=O)N4)ncnc21`, the bioavailability was determined as 10%.
Still for that read-out and setting: the figure for `CCn1c(-c2cnc(C)nc2)nc2c(-c3ccc4c(c3)[C@@]3(CCCN3C(=O)C3CC3)C(=O)N4C)ncnc21` is 57%.

Another data set in a line: Clearance in Beagle dog at 0.5 mg/kg, iv or 1 mg/kg, po. The class given is ADME, organism-based, Canis lupus familiaris. As to conditions: in vivo.
As to `CCn1c(-c2cnc(C)nc2)nc2c(-c3cnc4c(c3)[C@](C)(N3CC(C)(OC)C3)C(=O)N4)ncnc21`, the clearance was 7.4 mL/min/kg.

The nature of a further data set: Intrinsic clearance in Beagle dog at 0.5 mg/kg, iv or 1 mg/kg, po. Conditions: in vivo. The class given is ADME, organism-based, Canis lupus familiaris.
Molecule `CCn1c(-c2cnc(C)nc2)nc2c(-c3cnc4c(c3)[C@](C)(N3CC(C)(OC)C3)C(=O)N4)ncnc21` had a CL of 16 mL/min/kg.

Another data set is described as follows: Volume of distribution in Beagle dog at 0.5 mg/kg, iv or 1 mg/kg, po. It is filed as ADME, organism-based, Canis lupus familiaris. Conditions: in vivo.
As for `CCn1c(-c2cnc(C)nc2)nc2c(-c3ccc4c(c3)[C@@]3(CCCN3C(=O)C3CC3)C(=O)N4)ncnc21`, the Vd is 1.5 L/kg.
In turn, `CCn1c(-c2cnc(C)nc2)nc2c(-c3ccc4c(c3)[C@@]3(CCCN3C(=O)C3CC3)C(=O)N4C)ncnc21` registered a Vd of 0.5 L/kg.
In the case of `CCn1c(-c2cnc(C)nc2)nc2c(-c3cnc4c(c3)[C@](C)(N3CC(C)(OC)C3)C(=O)N4)ncnc21`, the Vd is 1.3 L/kg.

A short description of the next data set: Unbound volume of distribution in Beagle dog at 0.5 mg/kg, iv or 1 mg/kg, po. The class given is ADME, organism-based, Canis lupus familiaris. As to conditions: in vivo.
For `CCn1c(-c2cnc(C)nc2)nc2c(-c3ccc4c(c3)[C@@]3(CCCN3C(=O)C3CC3)C(=O)N4)ncnc21`, the Vdu was 3.8 L/kg.
`CCn1c(-c2cnc(C)nc2)nc2c(-c3ccc4c(c3)[C@@]3(CCCN3C(=O)C3CC3)C(=O)N4C)ncnc21` registered a Vdu of 1 L/kg.
For the molecule `CCn1c(-c2cnc(C)nc2)nc2c(-c3cnc4c(c3)[C@](C)(N3CC(C)(OC)C3)C(=O)N4)ncnc21`, the Vdu turned out to be 2.1 L/kg.

The next data set in a line: Oral bioavailability in Beagle dog at 1 mg/kg. It is filed as ADME, organism-based, Canis lupus familiaris. Conditions: in vivo.
In turn, `CCn1c(-c2cnc(C)nc2)nc2c(-c3ccc4c(c3)[C@@]3(CCCN3C(=O)C3CC3)C(=O)N4)ncnc21` had a bioavailability of 78%.
The molecule `CCn1c(-c2cnc(C)nc2)nc2c(-c3ccc4c(c3)[C@@]3(CCCN3C(=O)C3CC3)C(=O)N4C)ncnc21` came in with a bioavailability of 99%.

A further data set can be described thus: cells. Conditions: Homo sapiens, HeLa.
`CCn1c(-c2cnc(C)nc2)nc2c(-c3ccc4c(c3)[C@@]3(CCCN3C(=O)C3CC3)C(=O)N4C)ncnc21` showed an IC50 of 8.5 µM.
